Laboratory results: US20240400638A1, “COMBINATION OF RELAXIN AND VASOPRESSIN ANALOGUES FOR TREATMENT OF RENAL DISORDERS OR CONDITIONS” (River 2 Renal Corp., priority 2021, published 2024)
Numbered stars: 1 amine (or outer) side, 2 acyl side, 3 side chain; on linkers, the order of the positions; unused ones are H or OH. Bridge positions count the residues as written; N and C are the ends. Square brackets hold non-standard residues; d marks the D form. Side chains are listed from the residue outwards. Peptide text beside a SMILES is read from it. * marks the point of attachment. X2 = CCCCCCCCCCCCCCCCCC(=O)N[C@@H](CCC(=O)N[C@@H](CCC(=O)N[C@@H](CCC(=O)NCCCOCCOCCOCCCNC(=O)CCC(=O)NCCCOCCOCCOCCCNC(=O)CCC(=O)NCCCOCCOCCOCCCNC(=O)CCC(=O)NCCCOCCOCCOCCCN*)C(=O)O)C(=O)O)C(=O)O; X1 = CCCCCCCCCCCCCCCC(=O)N[C@@H](CCC(=O)N[C@@H](CCC(=O)N[C@@H](CCC(=O)NCCCOCCOCCOCCCNC(=O)CCC(=O)NCCCOCCOCCOCCCNC(=O)CCC(=O)NCCCOCCOCCOCCCN*)C(=O)O)C(=O)O)C(=O)O; Suc = O=C(CCC(=O)[*:2])[*:1]; Aib = CC(C)(N)C(=O)O

Key:
[1] = target: T1, human RXFP1 (Homo sapiens, UniProt Q9HBX9); experiment: In vitro OVCAR5 cAMP assay (HTRF); format: cell-based; conditions: OVCAR 5 cells (cAMP); for EC50: Table 2; for Emax: maximal cAMP relative to human relaxin-2, Table 2
T1 construct: OVCAR5 cells expressing endogenous human RXFP1; endogenous in cells; host or cells: OVCAR5 cells
T1 sequence (Q9HBX9 1-757): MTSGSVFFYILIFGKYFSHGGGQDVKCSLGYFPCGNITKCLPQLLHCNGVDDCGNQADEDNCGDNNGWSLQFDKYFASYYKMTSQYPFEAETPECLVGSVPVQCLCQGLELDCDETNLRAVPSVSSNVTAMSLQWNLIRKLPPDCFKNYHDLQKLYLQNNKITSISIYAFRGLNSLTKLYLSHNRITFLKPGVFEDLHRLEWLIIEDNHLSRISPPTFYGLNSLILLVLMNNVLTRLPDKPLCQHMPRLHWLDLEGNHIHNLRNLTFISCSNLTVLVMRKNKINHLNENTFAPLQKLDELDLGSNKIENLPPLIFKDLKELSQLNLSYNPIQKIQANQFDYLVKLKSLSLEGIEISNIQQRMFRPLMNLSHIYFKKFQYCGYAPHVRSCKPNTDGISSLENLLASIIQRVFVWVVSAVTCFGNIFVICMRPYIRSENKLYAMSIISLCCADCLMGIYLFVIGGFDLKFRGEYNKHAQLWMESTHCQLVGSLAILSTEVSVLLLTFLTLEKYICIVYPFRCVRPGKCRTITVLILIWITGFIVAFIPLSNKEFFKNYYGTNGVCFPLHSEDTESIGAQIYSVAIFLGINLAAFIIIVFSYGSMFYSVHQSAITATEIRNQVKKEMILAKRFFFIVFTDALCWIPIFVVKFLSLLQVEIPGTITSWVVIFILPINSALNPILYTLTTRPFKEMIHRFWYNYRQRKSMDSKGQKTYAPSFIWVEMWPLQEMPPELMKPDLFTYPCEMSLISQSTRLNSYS
Text: OVCAR5 cells expressing endogenous human RXFP1 were used to test RXFP1 agonist properties of relaxin peptide analogues, and in particular of the peptides of sequence SEQ ID NO: 1-97.
Since RXFP1 is a Gs coupled GPCR, increases in cAMP was used as readout of RXFP1 activation.
Isobutyl methyl xanthine (IBMX) was used to inhibit phosphodiesterase activity facilitating cAMP measurements. HTRF (Homogenous Time Resolved Fluorescence) technology was used to detect cAMP due to its high sensitivity.
In summary, OVCAR5 were grown in regular medium (RPMI) containing 10% fetal calf serum (FCS) and 1% antibiotics (penicillin/streptomycin).
Before the experiments, cells were detached with accutase and incubated for 40 minutes at 37° C. with 1 mM (3-isobutyl-1-methylxanthine) IBMX.
Cells were then distributed in 384 black well plates containing increasing concentrations of the different peptides in a fix volume of medium (without FCS).
After an incubation of 30 min at 37° C. in a humid incubator in 5% CO2, the reaction was stopped by adding a fixed volume of a solution containing a lysis buffer and cAMP-D2 (cAMP labeled with the dye d2) and the anti-cAMP antibody linked to Europium and used for cAMP detection.
Readout of the experiment were performed on a fluorimeter allowing HTRF measurement. Activation curves were generated by plotting the intracellular value of cAMP versus log 10 of the compound concentration.
The 50% activation concentration (EC50) was calculated by nonlinear regression using the sigmoidal dose-response (variable slope) equation with Prism 5 software.
Emax % was determined as the maximal intracellular value of cAMP for test compound (upper limit of cAMP vs concentration curve) divided by the maximal intracellular value of cAMP for human relaxin-2 (H2-R1x) determined in the same test occasion multiplied by 100.

[2] = cited from earlier work

EC50 [1] | Emax [1] | SMILES | mortality ([2]; at 3 months, patients receiving terlipressin and standard of care (e.g., albumin), Wong et al. 2021) | patients requiring discontinuation of treatment for severe side effects ([2]; human, in vivo) | patients with side effects ([2]; human, in vivo)
0.54 nM | 95% | CCCCCCCCCCCCCCCC(=O)N[C@@H](CCC(=O)N[C@@H](CCC(=O)N[C@@H](CCC(=O)NCCCOCCOCCOCCCNC(=O)CCC(=O)NCCCOCCOCCOCCCNC(=O)CCC(=O)NCCCOCCOCCOCCCNC(=O)CCC(=O)NCCCC[C@H](NC(=O)CNC(=O)[C@H](CCC(=O)O)NC(=O)C(C)(C)NC(=O)C(C)(C)NC(=O)[C@@H](NC(=O)[C@H](CCCCNC(C)=O)NC(=O)C(C)(C)NC(=O)[C@H](CCCNC(=N)N)NC(=O)[C@@H](NC(=O)[C@H](CCCCN)NC(=O)[C@H](CCC(=O)O)NC(=O)[C@H](CCCNC(=N)N)NC(=O)CNC(=O)[C@H](CCC(=O)O)NC(=O)[C@H](CC(C)C)NC(C)=O)C(C)C)[C@@H](C)CC)C(=O)N[C@@H](CO)C(=O)N[C@H](C(=O)N[C@@H](Cc1c[nH]c2ccccc12)C(=O)N[C@@H](CO)C(=O)NC(C)(C)C(=O)N[C@@H](CCCNC(=N)N)C(=O)N[C@@H](C)C(=O)N[C@@H](CCCCNC(C)=O)C(N)=O)[C@@H](C)O)C(=O)O)C(=O)O)C(=O)O [compound 82] (Ac-LEGREKVR[Aib]K(Ac)I[Aib][Aib]EGK([Suc-X1])STWS[Aib]RAK(Ac)-NH2) | – | – | –
0.09 nM | 99% | CCCCCCCCCCCCCCCCCC(=O)N[C@@H](CCC(=O)N[C@@H](CCC(=O)N[C@@H](CCC(=O)NCCCOCCOCCOCCCNC(=O)CCC(=O)NCCCOCCOCCOCCCNC(=O)CCC(=O)NCCCOCCOCCOCCCNC(=O)CCC(=O)NCCCOCCOCCOCCCNC(=O)CCC(=O)NCCCC[C@H](NC(=O)CNC(=O)[C@H](CCC(=O)O)NC(=O)C(C)(C)NC(=O)C(C)(C)NC(=O)[C@@H](NC(=O)[C@H](CCCCNC(C)=O)NC(=O)[C@H](C)NC(=O)[C@H](CCCNC(=N)N)NC(=O)[C@@H](NC(=O)[C@H](CCCCN)NC(=O)[C@H](CCC(=O)O)NC(=O)[C@H](CCCNC(=N)N)NC(=O)CNC(=O)[C@H](CCC(=O)O)NC(=O)[C@H](CC(C)C)NC(C)=O)C(C)C)[C@@H](C)CC)C(=O)N[C@@H](CO)C(=O)N[C@H](C(=O)N[C@@H](Cc1ccccc1)C(=O)N[C@@H](CO)C(=O)NC(C)(C)C(=O)N[C@@H](CCCNC(=N)N)C(=O)N[C@@H](CCCCN)C(=O)N[C@@H](CCCCNC(C)=O)C(N)=O)[C@@H](C)O)C(=O)O)C(=O)O)C(=O)O [compound 59] (Ac-LEGREKVRAK(Ac)I[Aib][Aib]EGK([Suc-X2])STFS[Aib]RKK(Ac)-NH2) | – | – | –
– | – | NCCCC[C@H](NC(=O)[C@@H]1CCCN1C(=O)[C@@H]1CSSC[C@H](NC(=O)CNC(=O)CNC(=O)CN)C(=O)N[C@@H](Cc2ccc(O)cc2)C(=O)N[C@@H](Cc2ccccc2)C(=O)N[C@@H](CCC(N)=O)C(=O)N[C@@H](CC(N)=O)C(=O)N1)C(=O)NCC(N)=O [terlipressin, Terlipressin] (H-GGGCYFQNCPKG-NH2; disulfide 4-9) | 51% | up to 10% | up to 40%
